This passage reports IC50 results from ChEMBL document CHEMBL5729177, “GLS1 inhibitors for treating disease” (2022).

In this assay the target is T1, Glutaminase kidney isoform, mitochondrial (Homo sapiens, UniProt O94925).
T1 sequence (O94925 whole entry): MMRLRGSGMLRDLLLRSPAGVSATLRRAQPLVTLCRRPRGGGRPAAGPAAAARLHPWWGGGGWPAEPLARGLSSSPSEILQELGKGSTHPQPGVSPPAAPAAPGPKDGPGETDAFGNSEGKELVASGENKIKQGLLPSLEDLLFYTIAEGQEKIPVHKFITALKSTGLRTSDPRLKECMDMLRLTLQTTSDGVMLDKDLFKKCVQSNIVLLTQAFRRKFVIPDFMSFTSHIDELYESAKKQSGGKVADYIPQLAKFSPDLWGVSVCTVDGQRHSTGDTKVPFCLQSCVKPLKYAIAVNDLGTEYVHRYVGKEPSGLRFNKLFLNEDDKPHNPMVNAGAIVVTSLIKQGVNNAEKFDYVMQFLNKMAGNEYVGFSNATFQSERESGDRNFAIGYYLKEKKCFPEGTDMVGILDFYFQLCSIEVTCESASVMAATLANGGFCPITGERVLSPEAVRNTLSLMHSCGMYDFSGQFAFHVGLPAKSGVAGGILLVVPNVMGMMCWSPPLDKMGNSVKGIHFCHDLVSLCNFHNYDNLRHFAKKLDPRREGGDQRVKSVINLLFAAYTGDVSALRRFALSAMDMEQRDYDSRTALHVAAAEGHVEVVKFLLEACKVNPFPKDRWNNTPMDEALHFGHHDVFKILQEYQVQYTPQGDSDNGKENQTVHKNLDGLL
Nature of the assay: Enzymatic Activity Assay: The inhibition of purified recombinant human GAC by varying concentrations of inhibitors is assessed via a dual-coupled enzymatic assay. The glutamate produced by the glutaminase reaction is used by glutamate oxidase to produce α-ketoglutarate, ammonia, and hydrogen peroxide, with this hydrogen peroxide subsequently being used by horseradish peroxidase to produce resorufin in the presence of Amplex UltraRed. The assay buffer consisted of 50 mM Hepes (pH 7.4), 0.25 mM EDTA and 0.1 mM Triton X-100. GAC was incubated with potassium phosphate (10 minutes at room temperature) prior to incubation with inhibitor (10 minutes at room temperature). The final reaction conditions were as follows: 2 nM GAC, 50 mM potassium phosphate, 100 mU/mL glutamate oxidase (Sigma), 1 mM glutamine (Sigma), 100 mU/mL horseradish peroxidase (Sigma), 75 μM Amplex UltraRed (Life Technologies), and 1% (v/v) DMSO. The production of resorufin was monitored on a Perkin Elmer Envision plate reader (excitation 530 nm, emission 590 nm) either in a kinetics or endpoint mode (at 20 minutes). IC50 values were calculated using a four-parameter logistic curve fit.

Molecules are shown by their SMILES. Bounds are passed on as bounds.

For `O=C(NCc1cc(OC(F)(F)F)ccc1F)c1cn(CCC(F)Cn2cc(C(=O)NCc3ccccn3)nn2)nn1` (stereo unspecified), the IC50 was under 100 nM.
